Measured values as given in the NIST ThermoML archive (doi:10.1016/j.tca.2005.06.043).
± gives the expanded uncertainty stated by the source.

How the values were obtained:
[1] = Calculated from knudsen effusion weight loss
[2] = molar enthalpy of vaporization or sublimation; details: 303 K; Crystal 2; Static calorimetry

For `BrC12CC3CC(CC(C3)C1)C2` [1-bromotricyclo[3.3.1.1(3,7)]decane], the “vapor or sublimation pressure” value ([1]; 288.36 K, Crystal 2) was 0.001603 ± 0.00015 kPa, the “vapor or sublimation pressure” value ([1]; 293.31 K, Crystal 2) was 0.002687 ± 0.00027 kPa and the “vapor or sublimation pressure” value ([1]; 298.28 K, Crystal 2) was 0.004279 ± 0.00045 kPa. For the same molecule, the “vapor or sublimation pressure” value ([1]; 303.22 K, Crystal 2) was 0.006896 ± 0.00077 kPa, the “vapor or sublimation pressure” value ([1]; 308.19 K, Crystal 2) was 0.0111 ± 0.0013 kPa and the “vapor or sublimation pressure” value ([1]; 313.16 K, Crystal 1) was 0.0169 ± 0.0021 kPa. The “vapor or sublimation pressure” value ([1]; 314.21 K, Crystal 1) was 0.01766 ± 0.0022 kPa, the “vapor or sublimation pressure” value ([1]; 314.65 K, Crystal 1) was 0.01847 ± 0.0023 kPa and the “vapor or sublimation pressure” value ([1]; 315.63 K, Crystal 1) was 0.01952 ± 0.0025 kPa. For the same molecule, the “vapor or sublimation pressure” value ([1]; 316.65 K, Crystal 1) was 0.0215 ± 0.0028 kPa, the “vapor or sublimation pressure” value ([1]; 318.12 K, Crystal 1) was 0.02411 ± 0.0032 kPa and the “vapor or sublimation pressure” value ([1]; 320.59 K, Crystal 1) was 0.02925 ± 0.0039 kPa. For the same molecule, the “vapor or sublimation pressure” value ([1]; 323.03 K, Crystal 1) was 0.03472 ± 0.0048 kPa and the molar enthalpy [2] was 17.15 ± 0.151 kcal/mol.
With `O=C(O)c1ccccc1` [benzoic acid] the “vapor or sublimation pressure” value ([1]; 318.02 K, Crystal) was 0.001022 ± 8.9e-05 kPa, the “vapor or sublimation pressure” value ([1]; 322.7 K, Crystal) was 0.001693 ± 0.00016 kPa and the “vapor or sublimation pressure” value ([1]; 322.99 K, Crystal) was 0.001744 ± 0.00016 kPa. For the same molecule, the “vapor or sublimation pressure” value ([1]; 327.9 K, Crystal) was 0.00289 ± 0.00029 kPa and the “vapor or sublimation pressure” value ([1]; 332.6 K, Crystal) was 0.004567 ± 0.00049 kPa.
